Values of other authors, collected in patent publication US11179350B2, “Nutraceutical compositions comprising C60 and Cox-2 inhibitor” (priority 2018, dated 2021).

What was measured:
[1] = more potent than Vitamin C
mice = mice (Quick et al. 2008)
rats = details: repeated oral administration (Baati et al. 2012)
[2] = test system: tumor growth and metastasis; details: Prylutska et al. 2011

## c12c3c4c5c1c1c6c7c2c2c8c3c3c9c4c4c%10c5c5c1c1c6c6c%11c7c2c2c7c8c3c3c8c9c4c4c9c%10c5c5c1c1c6c6c%11c2c2c7c3c3c8c4c4c9c5c1c1c6c2c3c41 [C60, Buckminsterfullerene]
[1]
  antioxidant potency relative to Vitamin C: 172 times
mice
  prolongation of life: prolong life
rats
  prolongation of life: prolong life
[2]
  tumor growth and metastasis: inhibit tumor growth and metastasis
